From patent US20240158339A1, “TYRAMINE CONTAINING HYDROXYCINNAMIC ACID AMIDE DERIVATIVES AND METHODS OF USE THEREOF” (Brightseed, Inc., priority 2018, published 2024)
“Also recorded” adds a separate entry of the source.

How the values were obtained:
[1] = test system: insulin mRNA; test: Insulin mRNA levels by quantitative PCR; format: cell-based; details: FIG. 2
Protocol: (§1) Expression of Insulin and HNF4α. RNA was purified using a RNEASY® chromatographic separation and isolation kits (Qiagen), and converted to cDNA using the gScript™ cDNA SuperMix (Quanta Biosciences). Q-PCR was conducted with cDNA corresponding to 2 μg of RNA using an Opticon Real-Time System (MJ Research) and QPCR SuperMix (BioPioneer). See All mRNA values were normalized to 18S rRNA values and are expressed as fold changes over vehicle-treated control.

[2] = test system: HNF4α mRNA; test: HNF4α mRNA levels by quantitative PCR; format: cell-based; details: FIG. 3
Protocol: as §1

[3] = test system: E47MER; test: Counter-screen for estrogenic activity (E47MER luciferase reporter in HeLa cells); format: cell-based, human; details: with 1 μM or without tamoxifen, FIG. 5
Protocol: Counter-Screen for Estrogenic Activity. Estrogenic activity was monitored by co-transfection of a reporter plasmid containing a multimerized E-box 5′ of a minimal promoter fused to the Firefly luciferase gene with wild-type E47 or E47MER (Kiselyuk, et al. (2010) J. Biomol. Screen 15(6):663-70). HeLa cells were transfected using polyethylenimine, 0.2 μg 4RTK-Luc plasmid and either 0.3 μg of human E47, E47MER or pMSCVhph vector in 50 μl of serum-free Dulbecco's modification of Eagle medium per well. Transfections included Renilla luciferase (pRL-TK) plasmid as a control for transfection efficacy. Transfection conditions were as described in the PPRE-Luc reporter assay of Kiselyuk, et al. ((2010) J. Biomol. Screen 15(6):663-70). Sixteen hours after transfection, culture media were changed and maintained for 48 hours with tamoxifen and/or compound or vehicle (DMSO). Cells were then lysed and assayed for luciferase activity using the Promega DUAL-LUCIFERASE® reporter assay kit (Promega Corp., Madison, WI), and luminescence was measured using the Veritas™ Microplate Luminometer (Turner Biosystems, Sunnyvale, CA). Data were normalized to Renilla luciferase (pRL-TK) and expressed as fold-change over vehicle alone.

[4] = Hepatic microsome stability assay, mouse; format: in vitro ADME; details: for % Remaining: mouse microsomes
Protocol: (§2) Hepatic Microsome Assay. Hepatic microsomes stability assays were performed in accordance with known methods (Peddibhotla, et al. (2013) ACS Med. Chem. Lett. 4:846-851). Briefly, 3 μL of 25 μM compound solution in acetonitrile were incubated with 123 μL of mouse, human or rat liver microsomes (Xenotech, Kansas City, KS). After preincubation at 37° C. for 10 minutes, enzyme reactions were initiated by adding 120 !at of NADPH-generating system (2 mM NADP+, 10 mM glucose-6-phosphate, 0.4 U/ml glucose-6-phosphate dehydrogenase, and 5 mM MgCl2) in the presence of 100 mM potassium phosphate buffer (pH 7.4). […] The microsomal concentrations used were 1.0 mg/mL. Compounds were incubated in microsomes for 0, 5, 15, 30 and 60 minutes. The reactions were stopped by the addition of ice cold ACN and the reaction mixtures were centrifuged at 10,000 g for 10 minutes before the supernatant was removed for analysis. A 10 μL portion of the resulting extract was injected on a Thermo HPLC system equipped with PAL CTC plate sampler (96-well plate), Dionex Ultimate 3000 binary pump (flow rate at 0. 600 mL/min), Dionex Ultimate 3000 thermostatted column compartment (temperature at 40° C.), Thermo Endura Mass Spectrometer (ESI source), using a Thermo Scientific Accucore C18 (2.6 μM, 2.1×50 mm) column. A gradient was run starting at 95% H2O (0.1% formic acid) and 5% ACN (0. 1% formic acid) during the first 0. 5 min, then under gradient condition of 5-100% ACN (0.1% formic acid) from minute 0. 5 to 3.5, finishing at 95% H2O (0.1% formic acid) and 5% ACN (0.1% formic acid) over 0.5 min, with another 1 min at 95:5 to re-equilibrate.

[5] = Hepatic microsome stability assay, rat; format: in vitro ADME; details: for % Remaining: rat microsomes
Protocol: as §2

[6] = Hepatic microsome stability assay, human; format: in vitro ADME
Protocol: as §2

[7] = test system: HepG2 cells; test: Lipid clearance (steatosis assay) in HepG2 cells; format: cell-based; details: HepG2 liver cells, 20 μM
Protocol: (§3) Lipid Clearance in HepG2 and T6PNE Cells (Steatosis Assay). The steatosis assay was carried out as described (Kiselyuk, et al. (2012) Chem. Biol. 19(7):806-818) with the exception of the drug concentration, which was 20 μM for N-trans-caffeoyltyramine with 0.25 mM palmitate in HepG2 cell lines, and 10 μM of either N-trans-caffeoyltyramine, N-trans-caffeoyltyramine, or p-coumaroyltyramine, with 0.25 mM palmitate in T6PNE cell lines. Steatosis was assessed using the Oil Red O Method for Fats kits (Poly Scientific; Warrington, PA), per manufacturer's guidelines. Briefly, frozen tissue slides or fixed cells were incubated in neat propylene glycol for 2 minutes and Oil Red O solution for […] for slides or 1 hour for fixed cells, differentiated in 85% propylene glycol solution for 1 minute, washed twice with distilled water and stained in Hematoxylin of 10 seconds. Slides were mounted with glycerin jelly mounting medium.

[8] = test system: T6PNE cells; test: Lipid clearance (steatosis assay) in T6PNE cells; format: cell-based
Protocol: T6PNE cells were pretreated for 1 day with 0.06 mM, 0.12 mM or 0.25 mM palmitate at which time 15 μM N-trans-caffeoyltyramine or control (DMSO) was added. Cells were harvested on day 3, 6 and 8 and subjected to staining with Nile Red and […]. Results are expressed as fold change in Nile Red staining: +palmitate/10% FBS medium (no palmitate).
as §3

[9] = in vivo; details: male, C57BL/6, mouse
Protocol: Bioavailability Determinations.
A blood sample from each mouse was drawn at 0.25, 0.5, 1, 2, 4, 6 and 24 hours after administration. An 8μL aliquot of blood was used for analysis. After adding 200 μL of an internal standard comprising 100 ng/mL Labetalol, 100 ng/mL dexamethasone, 100 ng/mL tolbutamide, 100 ng/mL Verapamil, 100 ng/mL Glyburide, and 100 ng/mL Celecoxib in ACN, the mixture was vortex-mixed and centrifuged at 12000 rpm for 15 minutes at 4° C. to pellet precipitated protein. Four μL at of the supernatant was injected for LC-MS/MS analysis. Bioavailability (%) was calculated using AUC0-inf(% AUCExtra<20%) or AUC0-last, (% AUCExtra >20%) with nominal dose.

[10] = liver microsomes, pH 7.4, 1 μM, read-out: Clearance Rate
[11] = liver microsomes, pH 7.4, 10 μM
[12] = liver microsomes, pH 7.4, 10 μM, read-out: Clearance Rate

Q: Which insulin gene expression [1] does the source give for `O=C(/C=C/c1ccc(O)c(O)c1)NCCc1ccc(O)cc1` [N-trans-caffeoyltyramine] here?
A: Its insulin gene expression is “upregulated”.

Q: What about the HNF4α gene expression [2] of the same molecule?
A: Its HNF4α gene expression is “upregulated”.

Q: What about the estrogenic activity [3] of the same molecule?
A: The estrogenic activity was “did not exhibit estrogenic activity”.

Q: And the half-life at 1 μM ([4]; liver microsomes, pH 7.4, 1 μM)?
A: The half-life at 1 μM was 0.8 min.

Q: And the microsomal CLint at 1 μM [4, 10]?
A: The microsomal CLint at 1 μM was 1760 µL/min/mg.

Q: What about the half-life at 10 μM [4, 11] of the same molecule?
A: Its half-life at 10 μM is 6.9 min.

Q: And the microsomal CLint at 10 μM [4, 12]?
A: The microsomal CLint at 10 μM was 200 µL/min/mg.

Q: And the “% Remaining” value ([4]; 1 μM)?
A: Its value is 0.4%.

Q: And the “% Remaining” value ([4]; 10 μM)?
A: Its value is 0.3%.

Q: What about the half-life at 1 μM ([5]; liver microsomes, pH 7.4, 1 μM) of the same molecule?
A: The half-life at 1 μM was 2.1 min.

Q: What about the microsomal CLint at 1 μM [5, 10] of the same molecule?
A: The microsomal CLint at 1 μM was 674 µL/min/mg.

Q: And the half-life at 10 μM [5, 11]?
A: Its half-life at 10 μM is 22.4 min.

Q: What about the microsomal CLint at 10 μM [5, 12] of the same molecule?
A: Its microsomal CLint at 10 μM is 30.9 µL/min/mg.

Q: What about the “% Remaining” value ([5]; 1 μM) of the same molecule?
A: The value was 0.6%.

Q: What about the “% Remaining” value ([5]; 10 μM) of the same molecule?
A: The value was 33.6%.

Q: What about the “apparent major biotransformation pathway” value ([6]; human microsomes) of the same molecule?
A: Its value is “oxidation of the left-hand aryl ring”.

Q: And the “% Remaining” value ([6]; human microsomes, 1 μM)?
A: Its value is 55.3%.

Q: And the “% Remaining” value ([6]; human microsomes, 10 μM)?
A: Its value is 85.4%.

Q: And the “stability in hepatic microsomes” value ([6]; human, rat and mouse hepatic microsomes)?
A: The value was “stable”.

Q: And the half-life at 1 μM ([6]; liver microsomes, pH 7.4, human microsomes, 1 μM)?
A: The half-life at 1 μM was 77.3 min.

Q: And the microsomal CLint at 1 μM ([6]; liver microsomes, pH 7.4, human microsomes, 1 μM, read-out: Clearance Rate)?
A: The microsomal CLint at 1 μM was 17.9 µL/min/mg.

Q: And the half-life at 10 μM ([6]; liver microsomes, pH 7.4, human microsomes, 10 μM)?
A: Its half-life at 10 μM is 262 min.

Q: What about the microsomal CLint at 10 μM ([6]; liver microsomes, pH 7.4, human microsomes, 10 μM, read-out: Clearance Rate) of the same molecule?
A: The microsomal CLint at 10 μM was 5.3 µL/min/mg.

Q: What about the “clearing of fats, Oil Red O staining” value [7] of the same molecule?
A: The value was “capable of clearing harmful fats from the liver”.

Q: What about the accumulation of fats ([7]; 0.25 mM palmitate) of the same molecule?
A: The accumulation of fats was “inhibited accumulation of fats”.

Q: And the “lipid accumulation when palmitate was added prior to compound” value ([8]; T6PNE cells pretreated 1 day with 0.06-0.25 mM palmitate, 15 μM compound, Nile Red, FIG. 6)?
A: The value was “reduced lipid accumulation; also recorded: can reverse fat accumulation”.

Q: What about the fat accumulation ([8]; T6PNE cells, 0.25 mM palmitate, 10 μM compound) of the same molecule?
A: Its fat accumulation is “inhibition of fat accumulation”.

Q: And the bioavailability [9]?
A: The bioavailability was about 11%.
